Data from the NIST ThermoML archive (doi:10.1021/je060271a).

Conditions: 323.15 K, Liquid, Vibrating tube method

CCCCC(=O)OCC(COC(=O)CCCC)(COC(=O)CCCC)COC(=O)CCCC [pentaerythritol tetrapentanoate]
Conditions | mass density [kg/m3]
15928 kPa | 1005.6
15948 kPa | 1005.6
15968 kPa | 1005.5
15988 kPa | 1005.5
16012 kPa | 1005.6
16032 kPa | 1005.7
16056 kPa | 1005.6
16076 kPa | 1005.7
16096 kPa | 1005.7
16116 kPa | 1005.7
16141 kPa | 1005.7
16161 kPa | 1005.6
16185 kPa | 1005.7
16205 kPa | 1005.7
16227 kPa | 1005.7
16252 kPa | 1005.7
16273 kPa | 1005.7
16293 kPa | 1005.7
16318 kPa | 1005.8
16339 kPa | 1005.8
16360 kPa | 1005.8
16385 kPa | 1005.8
16406 kPa | 1006
16427 kPa | 1005.8
16453 kPa | 1005.9
16474 kPa | 1006
16495 kPa | 1005.9
16521 kPa | 1005.9
16542 kPa | 1006
16564 kPa | 1006
16586 kPa | 1006
16612 kPa | 1006
16634 kPa | 1006.1
16660 kPa | 1006.1
16681 kPa | 1006
16704 kPa | 1006.1
16730 kPa | 1006.2
16752 kPa | 1006.1
16774 kPa | 1006.1
16800 kPa | 1006.1
16823 kPa | 1006.1
16845 kPa | 1006.2
16872 kPa | 1006.2
16894 kPa | 1006.1
16917 kPa | 1006.2
16944 kPa | 1006.3
16967 kPa | 1006.3
16990 kPa | 1006.2
17017 kPa | 1006.1
17040 kPa | 1006.2
17063 kPa | 1006.2
17090 kPa | 1006.4
17114 kPa | 1006.3
17138 kPa | 1006.4
17161 kPa | 1006.3
17189 kPa | 1006.4
17212 kPa | 1006.4
17236 kPa | 1006.4
17264 kPa | 1006.4
17288 kPa | 1006.4
17312 kPa | 1006.4
17335 kPa | 1006.5
17364 kPa | 1006.5
17388 kPa | 1006.6
17412 kPa | 1006.6
17441 kPa | 1006.5
17467 kPa | 1006.5
17491 kPa | 1006.5
17520 kPa | 1006.6
17544 kPa | 1006.6
17568 kPa | 1006.6
17593 kPa | 1006.6
17623 kPa | 1006.7
17647 kPa | 1006.7
17672 kPa | 1006.7
17702 kPa | 1006.8
17726 kPa | 1006.7
17756 kPa | 1006.6
17781 kPa | 1006.7
17807 kPa | 1006.7
17832 kPa | 1006.7
17862 kPa | 1006.8
17887 kPa | 1006.9
17913 kPa | 1006.7
17944 kPa | 1006.8
17969 kPa | 1006.8
18000 kPa | 1006.9
18025 kPa | 1006.8
18051 kPa | 1006.9
18077 kPa | 1006.9
18108 kPa | 1007
18134 kPa | 1007
18161 kPa | 1007.1
18192 kPa | 1007
18218 kPa | 1007
18249 kPa | 1007.1
18276 kPa | 1007.2
18303 kPa | 1007.1
18329 kPa | 1007.1
18361 kPa | 1007.1
18388 kPa | 1007.1
18415 kPa | 1007.1
18447 kPa | 1007.2
18475 kPa | 1007.2
18502 kPa | 1007.2
18530 kPa | 1007.2
18563 kPa | 1007.2
18590 kPa | 1007.3
18618 kPa | 1007.4
18651 kPa | 1007.4
18679 kPa | 1007.4
18707 kPa | 1007.3
18740 kPa | 1007.4
18768 kPa | 1007.3
18797 kPa | 1007.4
18831 kPa | 1007.4
18859 kPa | 1007.4
18888 kPa | 1007.4
18917 kPa | 1007.4
18952 kPa | 1007.5
18980 kPa | 1007.5
19014 kPa | 1007.5
19043 kPa | 1007.6
19072 kPa | 1007.5
19101 kPa | 1007.7
19136 kPa | 1007.6
19166 kPa | 1007.7
19196 kPa | 1007.7
19232 kPa | 1007.6
19262 kPa | 1007.7
19292 kPa | 1007.8
19322 kPa | 1007.7
19388 kPa | 1007.8
19515 kPa | 1007.8
19552 kPa | 1007.8
19582 kPa | 1007.8
19613 kPa | 1008
19650 kPa | 1007.9
19682 kPa | 1008
19716 kPa | 1008
19747 kPa | 1008.1
19778 kPa | 1007.9
19817 kPa | 1008
19848 kPa | 1008
19887 kPa | 1008
19919 kPa | 1008
19952 kPa | 1008.1
19992 kPa | 1008.1
20023 kPa | 1008.2
20052 kPa | 1008.2
20085 kPa | 1008.2
20113 kPa | 1008.2
20143 kPa | 1008.2
20171 kPa | 1008.3
20199 kPa | 1008.2
20232 kPa | 1008.3
20260 kPa | 1008.2
20288 kPa | 1008.4
20321 kPa | 1008.4
20349 kPa | 1008.4
20383 kPa | 1008.5
20411 kPa | 1008.4
20440 kPa | 1008.5
20474 kPa | 1008.4
20502 kPa | 1008.4
20532 kPa | 1008.5
20561 kPa | 1008.5
20596 kPa | 1008.5
20625 kPa | 1008.6
20659 kPa | 1008.6
20689 kPa | 1008.5
20718 kPa | 1008.6
20747 kPa | 1008.6
20783 kPa | 1008.8
20813 kPa | 1008.6
20848 kPa | 1008.7
20877 kPa | 1008.7
20908 kPa | 1008.7
20944 kPa | 1008.8
20974 kPa | 1008.8
21004 kPa | 1008.8
21035 kPa | 1008.8
21072 kPa | 1008.7
21102 kPa | 1008.8
21133 kPa | 1008.9
21170 kPa | 1008.8
21202 kPa | 1009
21233 kPa | 1008.9
21271 kPa | 1008.9
21302 kPa | 1009
21334 kPa | 1009.1
21366 kPa | 1009
21404 kPa | 1009
21436 kPa | 1009.1
21467 kPa | 1009.1
21506 kPa | 1009.1
21538 kPa | 1009
21570 kPa | 1009.1
21602 kPa | 1009.2
21640 kPa | 1009.2
21673 kPa | 1009.2
21712 kPa | 1009.2
21744 kPa | 1009.1
21778 kPa | 1009.3
21817 kPa | 1009.3
21851 kPa | 1009.3
21883 kPa | 1009.4
21916 kPa | 1009.3
21956 kPa | 1009.5
21989 kPa | 1009.3
22029 kPa | 1009.4
22063 kPa | 1009.6
22097 kPa | 1009.4
22137 kPa | 1009.6
22171 kPa | 1009.6
22206 kPa | 1009.5
22241 kPa | 1009.5
22282 kPa | 1009.6
22316 kPa | 1009.7
22351 kPa | 1009.7
22393 kPa | 1009.6
22429 kPa | 1009.6
22457 kPa | 1009.7
22500 kPa | 1009.8
22542 kPa | 1009.8
22578 kPa | 1009.8
22621 kPa | 1009.9
22658 kPa | 1009.7
22697 kPa | 1009.8
22736 kPa | 1009.9
22782 kPa | 1009.8
22818 kPa | 1009.9
22851 kPa | 1010
22882 kPa | 1010
22921 kPa | 1010.1
22951 kPa | 1009.9
22978 kPa | 1010.1
23006 kPa | 1010
23030 kPa | 1010
23059 kPa | 1010.1
23083 kPa | 1010.2
23108 kPa | 1010.1
23132 kPa | 1010.2
23156 kPa | 1010.1
23180 kPa | 1010.1
23209 kPa | 1010.1
23233 kPa | 1010.2
23262 kPa | 1010.2
23287 kPa | 1010.1
23311 kPa | 1010.3
23336 kPa | 1010.3
23364 kPa | 1010.3
23389 kPa | 1010.3
23414 kPa | 1010.4
23444 kPa | 1010.3
23468 kPa | 1010.3
23497 kPa | 1010.4
23523 kPa | 1010.3
23547 kPa | 1010.4
23572 kPa | 1010.4
23603 kPa | 1010.4
23627 kPa | 1010.5
23657 kPa | 1010.5
23683 kPa | 1010.5
23708 kPa | 1010.5
23738 kPa | 1010.6
23763 kPa | 1010.6
23790 kPa | 1010.6
23820 kPa | 1010.5
23846 kPa | 1010.7
23871 kPa | 1010.6
23902 kPa | 1010.5
23928 kPa | 1010.7
23954 kPa | 1010.7
23985 kPa | 1010.6
24011 kPa | 1010.6
24037 kPa | 1010.7
24063 kPa | 1010.8
24094 kPa | 1010.9
24121 kPa | 1010.7
24148 kPa | 1010.8
24180 kPa | 1010.8
24206 kPa | 1010.7
24237 kPa | 1010.8
24264 kPa | 1010.9
24291 kPa | 1010.8
24318 kPa | 1010.9
24350 kPa | 1010.8
24378 kPa | 1010.9
24405 kPa | 1011
24437 kPa | 1010.9
24464 kPa | 1010.9
24497 kPa | 1011.1
24525 kPa | 1011
24552 kPa | 1011
24580 kPa | 1011.1
24612 kPa | 1011
24640 kPa | 1011
24667 kPa | 1011.2
24701 kPa | 1011.1
24728 kPa | 1011.1
24761 kPa | 1011.1
24789 kPa | 1011.2
24817 kPa | 1011.2
24845 kPa | 1011.1
24879 kPa | 1011.3
24908 kPa | 1011.2
24936 kPa | 1011.2
24970 kPa | 1011.3
24999 kPa | 1011.2
25027 kPa | 1011.3
25056 kPa | 1011.3
25091 kPa | 1011.3
25119 kPa | 1011.3
25148 kPa | 1011.4
25182 kPa | 1011.4
25212 kPa | 1011.5
25247 kPa | 1011.4
25278 kPa | 1011.4
25307 kPa | 1011.4
25336 kPa | 1011.4
